Measurements reported in the supplement of paper PMC10307832.

Assays:
Assay in all cases: relative viability (nuclei count vs DMSO), 5 days (fraction); higher = more cells survive
[1] = compound: CN(c1ncccc1CNc1nc(Nc2ccc3c(c2)CC(=O)N3)ncc1C(F)(F)F)S(C)(=O)=O + C[C@@H](Oc1cc(-c2cnn(C3CCNCC3)c2)cnc1N)c1c(Cl)ccc(F)c1Cl [Crizotinib] (partner 1 µM)
How it was run: (§1)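 Relative viability was taken as the ratio of nuclei in treated wells to nuclei in vehicle wells. Lung cancer cell lines in 1536-well plates received compounds by pin tool one day after seeding, either one drug alone or a fixed anchor-drug dose plus five library-drug doses (not always all listed) in √10 steps. Nuclei were counted on 4× images after 5 days of treatment, and values are medians of duplicate plates.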

[2] = compound: CN(c1ncccc1CNc1nc(Nc2ccc3c(c2)CC(=O)N3)ncc1C(F)(F)F)S(C)(=O)=O + O=C(CCCCCCC(=O)Nc1ccccc1)NO [Vorinostat] (partner 1 µM)
How it was run: as §1

[3] = compound: CN(c1ncccc1CNc1nc(Nc2ccc3c(c2)CC(=O)N3)ncc1C(F)(F)F)S(C)(=O)=O + CS(=O)(=O)N1CCN(Cc2cc3nc(-c4cccc5[nH]ncc45)nc(N4CCOCC4)c3s2)CC1 [Pictilisib] (partner 1 µM)
How it was run: as §1

[4] = compound: CN(c1ncccc1CNc1nc(Nc2ccc3c(c2)CC(=O)N3)ncc1C(F)(F)F)S(C)(=O)=O + Cc1nc(Nc2ncc(C(=O)Nc3c(C)cccc3Cl)s2)cc(N2CCN(CCO)CC2)n1 [Dasatinib] (partner 0.075 µM)
How it was run: as §1

| Cell Line | relative viability ([1]; first compound 0.01 µM) | relative viability ([1]; first compound 0.03162 µM) | relative viability ([1]; first compound 0.1 µM) | relative viability ([1]; first compound 0.3162 µM) | relative viability ([1]; first compound 1 µM) | relative viability ([2]; first compound 0.01 µM) | relative viability ([2]; first compound 0.03162 µM) | relative viability ([2]; first compound 0.1 µM) | relative viability ([2]; first compound 0.3162 µM) | relative viability ([2]; first compound 1 µM) | relative viability ([3]; first compound 0.01 µM) | relative viability ([3]; first compound 0.03162 µM) | relative viability ([3]; first compound 0.1 µM) | relative viability ([3]; first compound 0.3162 µM) | relative viability ([3]; first compound 1 µM) | relative viability ([4]; first compound 0.01 µM) | relative viability ([4]; first compound 0.03162 µM) | relative viability ([4]; first compound 0.1 µM) | relative viability ([4]; first compound 0.3162 µM) | relative viability ([4]; first compound 1 µM) |
| --- | --- | --- | --- | --- | --- | --- | --- | --- | --- | --- | --- | --- | --- | --- | --- | --- | --- | --- | --- | --- |
| 201T | 1.05 | 0.991 | 1.02 | 0.975 | 1 | 0.971 | 0.98 | 0.915 | 0.9 | 0.923 | 0.697 | 0.666 | 0.613 | 0.675 | 0.647 | 0.602 | 0.55 | 0.45 | 0.538 | 0.517 |
| A549 | 0.762 | 0.799 | 0.803 | 0.797 | 0.526 |  |  |  |  |  | 0.474 | 0.63 | 0.569 | 0.452 | 0.409 |  |  |  |  |  |
| A-427 | 0.916 | 0.964 | 0.951 | 0.783 | 0.725 | 0.892 | 0.874 | 0.878 | 0.903 | 0.859 | 0.69 | 0.753 | 0.638 | 0.73 | 0.667 | 0.628 | 0.864 | 0.713 | 0.823 | 0.725 |
| ABC-1 | 1.12 | 1.21 | 1.09 | 1.15 | 1.17 | 1.02 | 0.948 | 1.28 | 1.11 | 1.27 | 0.74 | 0.822 | 0.746 | 0.952 | 0.847 | 0.574 | 0.633 | 0.559 | 0.54 | 0.587 |
| BEN | 0.825 | 0.949 | 0.813 | 0.848 | 0.848 | 0.546 | 0.625 | 0.578 | 0.544 | 0.554 | 0.595 | 0.585 | 0.512 | 0.594 | 0.703 | 0.319 | 0.312 | 0.272 | 0.289 | 0.267 |
| CAL-12T | 0.619 | 0.538 | 0.576 | 0.566 | 0.593 | 0.91 | 0.854 | 0.726 | 0.767 | 0.708 | 0.43 | 0.305 | 0.28 | 0.318 | 0.498 | 0.35 | 0.213 | 0.268 | 0.191 | 0.136 |
| COR-L23 | 0.653 | 0.649 | 0.7 | 0.594 | 0.486 | 0.471 | 0.392 | 0.327 | 0.305 | 0.295 | 0.793 | 0.824 | 0.922 | 0.874 | 0.585 | 0.458 | 0.524 | 0.483 | 0.413 | 0.323 |
| COR-L 105 | 0.64 | 0.649 | 0.779 | 0.747 | 0.47 | 0.813 | 0.865 | 0.873 | 0.855 | 0.619 | 0.435 | 0.395 | 0.383 | 0.427 | 0.426 | 0.274 | 0.25 | 0.343 | 0.282 | 0.288 |
| Calu-6 | 0.809 | 0.828 | 0.774 | 0.725 | 0.546 |  |  |  |  |  | 0.926 | 0.986 | 0.929 | 0.874 | 0.845 |  |  |  |  |  |
| ChaGo-K-1 | 1.1 | 1.21 | 1.08 |  | 1.05 | 0.756 | 0.708 | 0.778 | 0.816 | 0.738 | 0.753 | 0.518 | 0.973 |  | 1.15 | 0.656 | 0.531 | 0.52 | 0.614 | 0.531 |
| EKVX | 0.895 | 0.828 | 0.98 | 0.801 | 0.789 | 0.638 | 0.746 | 0.638 | 0.627 | 0.494 | 0.462 | 0.422 | 0.418 | 0.375 | 0.431 | 0.464 | 0.425 | 0.447 | 0.411 | 0.347 |
| EMC-BAC-2 | 0.798 | 0.817 | 0.717 | 0.78 | 0.778 | 0.46 | 0.229 | 0.446 | 0.44 | 0.443 | 0.576 | 0.505 | 0.465 | 0.528 | 0.5 | 0.247 | 0.308 | 0.279 | 0.295 | 0.271 |
| EPLC-272H | 0.912 | 0.873 | 0.888 | 0.968 | 0.93 | 0.546 | 0.23 | 0.408 | 0.564 | 0.263 | 0.256 | 0.269 | 0.298 | 0.209 | 0.336 | 0.338 | 0.27 | 0.218 | 0.209 | 0.135 |
| H3255 | 0.945 | 1.03 | 0.832 | 0.663 | 0.839 | 0.881 | 0.931 | 0.767 | 0.796 | 0.743 | 0.422 | 0.537 | 0.413 | 0.505 | 0.382 | 0.368 | 0.347 | 0.356 | 0.385 | 0.378 |
| HARA | 0.938 | 0.938 | 1 | 1.02 | 0.698 | 0.569 | 0.573 | 0.55 | 0.516 | 0.432 | 0.305 | 0.556 | 0.365 | 0.544 | 0.377 | 0.228 | 0.17 | 0.19 | 0.201 | 0.217 |
| HCC-15 | 0.821 | 0.746 | 0.739 | 0.707 | 0.6 | 0.79 | 0.796 | 0.741 | 0.77 | 0.675 | 0.817 | 0.68 | 0.711 | 0.716 | 0.622 | 0.541 | 0.602 | 0.497 | 0.428 | 0.408 |
| HCC-44 | 0.876 | 0.893 | 0.798 | 0.788 | 0.749 | 1.1 | 1.06 | 1.13 | 1.14 | 1.1 | 0.478 | 0.623 | 0.617 | 0.678 | 0.658 |  |  |  |  |  |
| HCC-78 | 0.379 | 0.342 | 0.305 | 0.29 | 0.319 | 0.526 | 0.47 | 0.431 | 0.414 | 0.403 | 0.228 | 0.167 | 0.216 | 0.188 | 0.165 | 0.312 | 0.33 | 0.325 | 0.256 | 0.296 |
